Read-outs that look alike come from different tables or passages of the source.
Columns and labels:
Messa-Dx5 = assay: 72-h MTT cytotoxicity assay, Messa-Dx5; format: cell-based; details: Homo sapiens, MES-SA/Dx5, 72 h; Messa-Dx5, Uterus sarcoma; read-out: Anti-proliferative activity, 72-h MTT IC50
Method: (§1) Representative bisarylsulfonamide compounds were tested on a panel of transformed and non-transformed human cell lines, using a standard 72-h MTT cytotoxicity assay [Haselsberger K et al, ibid].

AGS = assay: 72-h MTT cytotoxicity assay, AGS; format: cell-based; details: Homo sapiens
Outline: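 Compounds were incubated with three human tumour lines chosen for genetic contrast, then viability was scored by MTT reduction. AGS is gastric with intact p53, SJSA-1 is bone sarcoma bearing intact p53 and amplified HDM2 expression, and H1299 is lung carcinoma without p53.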

HS27 = assay: 72-h MTT cytotoxicity assay, HS27; format: cell-based; details: Homo sapiens, HS27, Foreskin fibroblasts, read-out: Anti-proliferative activity, 72-h MTT IC50
Method: as §1

[1] = test system: transformed human cell lines; assay: 72-h MTT panel, average transformed; format: cell-based; details: average over transformed cell lines, read-out: Anti-proliferative activity, 72-h MTT IC50, Average transformed
Method: as §1
(§2) This differential selectivity further supports the notion that the bisarylsulfonamides modulate cellular HDM2 function. It is known that HDM2 amplification is particularly common in soft tissue sarcomas and osteosarcomas [Momand J et al, ibid; Bartel F, Meye A, Wurl P, Kappler M, Bache M, Lautenschlager C, Grunbaum U, Schmidt H, Taubert H; Int. J. Cancer 2001; 95: 168-175].

A549 = assay: 72-h MTT cytotoxicity assay, A549; format: cell-based; details: Homo sapiens, A549, Lung carcinoma, read-out: Anti-proliferative activity, 72-h MTT IC50
Method: as §1

HCT116 = assay: 72-h MTT cytotoxicity assay, HCT116; format: cell-based; details: Homo sapiens, HCT-116, 72 h; HCT116, Colon carcinoma; read-out: Anti-proliferative activity, 72-h MTT IC50
Method: as §1

SK-N-MC = assay: 72-h MTT cytotoxicity assay, SK-N-MC; format: cell-based; details: Homo sapiens, Neuriepithelioma, read-out: Anti-proliferative activity, 72-h MTT IC50
Method: as §1

SKUT-1 = assay: 72-h MTT cytotoxicity assay, SKUT-1; format: cell-based; details: Homo sapiens, SK-UT-1, 72 h; SKUT-1, Uterus leiomyosarcoma; read-out: Anti-proliferative activity, 72-h MTT IC50
Method: as §1

WI38 = assay: 72-h MTT cytotoxicity assay, WI38; format: cell-based; details: Homo sapiens, WI-38, 72 h; WI38, Lung fibroblasts; read-out: Anti-proliferative activity, 72-h MTT IC50
Method: as §1

IMR90 = assay: 72-h MTT cytotoxicity assay, IMR90; format: cell-based; details: Homo sapiens, IMR-90, 72 h; IMR90, Lung fibroblasts; read-out: Anti-proliferative activity, 72-h MTT IC50
Method: as §1

Nci-H460 = assay: 72-h MTT cytotoxicity assay, Nci-H460; format: cell-based; details: Homo sapiens, Nci-H460, Large cell lung carcinoma, read-out: Anti-proliferative activity, 72-h MTT IC50
Method: as §1

DU145 = assay: 72-h MTT cytotoxicity assay, DU145; format: cell-based; details: Homo sapiens, DU-145, 72 h; DU145, Prostate carcinoma; read-out: Anti-proliferative activity, 72-h MTT IC50
Method: as §1

[2] = test system: non-transformed human cell lines; assay: 72-h MTT panel, average non-transformed; format: cell-based; details: average over non-transformed cell lines, read-out: Anti-proliferative activity, 72-h MTT IC50, Average non-transformed
Method: as §1, §2

p53 = p53 reporter gene assay (U2OS-derived luciferase reporter cell line); details: for Fold induction of luciferase activity: compared to basal luciferase activity, 16-h time point, at concentration of maximal induction; for Concentration (test compound concentration at which the p53 induction was maximal): p53 reporter, U2OS-derived cell line
Method: A dual assay assessing both cell viability and p53 response was employed. A U2OS-derived cell line stably transfected with a p53 response element and a luciferase reporter gene was created. […] After seeding of cells into 96-well tissue culture plates, treatment with test compounds, and incubation for the desired duration, the cell proliferation reagent WST-1 (Roche Molecular Biochemicals) was used to determine cell viability. The Bright-Glo™ Luciferase Assay System (Promega) was used to measure luciferase activity. The data from the cell viability assay was used to normalise data from the luciferase assay.

U2OS = assay: 72-h MTT cytotoxicity assay, U2OS; format: cell-based; details: Homo sapiens, Osteosracoma, read-out: Anti-proliferative activity, 72-h MTT IC50
Method: as §1

Messa = assay: 72-h MTT cytotoxicity assay, Messa; format: cell-based; details: Homo sapiens, MES-SA, Uterus sarcoma, read-out: Anti-proliferative activity, 72-h MTT IC50
Method: as §1

Lovo = assay: 72-h MTT cytotoxicity assay, Lovo; format: cell-based; details: Homo sapiens, Colon adenocarcinoma, read-out: Anti-proliferative activity, 72-h MTT IC50
Method: as §1

HeLa = assay: 72-h MTT cytotoxicity assay, HeLa; format: cell-based; details: Homo sapiens, Cervical carcinoma, read-out: Anti-proliferative activity, 72-h MTT IC50
Method: as §1

MCF7 = assay: 72-h MTT cytotoxicity assay, MCF7; format: cell-based; details: Homo sapiens, MCF7, Breast adenocarcinoma, read-out: Anti-proliferative activity, 72-h MTT IC50
Method: as §1

HDM2 = target: T1, HDM2 (Homo sapiens, UniProt Q00987); assay: Fluorescence polarisation competitive HDM2 binding assay
T1 construct: Recombinant HDM2 (1.5 μg per well) in TBS-BSA buffer
Outline: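 Recombinant HDM2 (1.5 μg/well) was preincubated 5 min at room temperature with serially diluted compound in 50 mM Tris pH 7.4, 150 mM NaCl, 0.1% BSA, 5% DMSO final. Fluorescein-labelled p53 peptide (0.2 μM) was then added for 45 min. Polarisation was read at 485/520 nm and IC50 derived from dose-response curves.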

Saos-2 = assay: 72-h MTT cytotoxicity assay, Saos-2; format: cell-based; details: Homo sapiens, Saos-2, Osteosracoma, read-out: Anti-proliferative activity, 72-h MTT IC50
Method: as §1

carcinoma cell lines = assay: 72-h MTT panel, average carcinomas; format: cell-based; details: Homo sapiens, average over carcinoma cell lines, read-out: Anti-proliferative activity, 72-h MTT IC50, Average carcinomas
Method: as §1, §2

sarcoma cell lines = assay: 72-h MTT panel, average sarcomas; format: cell-based; details: Homo sapiens, average over sarcoma cell lines, read-out: Anti-proliferative activity, 72-h MTT IC50, Average sarcomas
Method: as §1, §2

H1299 = assay: 72-h MTT cytotoxicity assay, H1299; format: cell-based; details: Homo sapiens
Method: (§3) The fluorescence polarisation competitive HDM2 binding assay described in Example 3 was used. Furthermore, the anti-proliferative potency of the compounds against three human tumour cell lines with different genetic make-up was also determined. […] The cell lines used were as follows: AGS, gastric adenocarcinoma, wild-type p53; H1299, large cell lung carcinoma, p53 null, low HDM2; SJSA-1, primitive multipotential bone sarcoma, wild-type p53, overexpressed HDM2.
as §1

SJSA-1 = assay: 72-h MTT cytotoxicity assay, SJSA-1; format: cell-based; details: Homo sapiens
Method: as §3, §1

NaCat = assay: 72-h MTT cytotoxicity assay, NaCat; format: cell-based; details: Keratinocyte, Human keratinocytes, read-out: Anti-proliferative activity, 72-h MTT IC50
Method: as §1

HT29 = assay: 72-h MTT cytotoxicity assay, HT29; format: cell-based; details: Homo sapiens, HT-29, 72 h; HT29, Colon adenocarcinoma; read-out: Anti-proliferative activity, 72-h MTT IC50
Method: as §1

[3] = test system: E2F transcription factors; assay: E2F reporter gene assay (A549-derived luciferase reporter cell line); format: cell-based; details: Homo sapiens; after 3-h treatment with test compounds; read-out: IC50 E2F reporter, Non-synchronised cells
Method: A similar system to the p53 reporter assay described above was used, with the exception that it was designed to be responsive to E2F transcription factors rather than p53. An A549-derived cell line stably transfected with an E2F response element and a luciferase reporter gene was created. The genetic expression cassette construct used was from Clontech (Mercury™ Cell Cycle Profiling System). Assays were carried out as described above.
Representative bisarylsulfonamides were tested in the E2F gene reporter assay described in Example 6.

[4] = test system: AGS, H1299, MCF7 or SJSA1 cells; assay: Cell morphology (cell rounding); format: cell-based, human; details: five times IC50
Source text: Equal amounts of cell lysate were separated by SDS-PAGE and analysed by immunoblotting using the indicated antibodies. An estimation of the extent of cell rounding is indicated above each lane. The arrow indicates the position of a 85-kDa cleavage product of PARP, indicative of apoptosis. (B) The effect of compound 2 on the levels of the cell cycle proteins in AGS cells (wild-type 53). […] Equal amounts of cell lysate were separated by SDS-PAGE and analysed by immunoblotting using the indicated antibodies. An estimation of the extent of cell rounding is indicated above each lane. (C) The effect of negative control compound (refer Example 10), compound 2, cisplatin, and anisomycin on the levels of key proteins in MCF7 cells. […] Cisplatinum and anisomycin (a transcription inhibitor) treatments were with 50 μM or 37 μM, respectively. Cells were harvested at various time points; afterwards lysates were prepared and separated by SDS-PAGE and analysed by immunoblotting. The proteins detected are indicated. The extent of rounded or floating cells and the percentage viable cells were assessed. […] Equal amounts of cell lysate were separated by SDS-PAGE and analysed by immunoblotting using a range of antibodies. An estimation of the extent of cell rounding is indicated above each lane. […] SJSA1 cells were treated with 5 times [IC50] of compound 2 and collected at the indicated time points. Equal amounts of cell lysate were separated by SDS-PAGE and analysed by immunoblotting using a range of antibodies. An estimation of the extent of cell rounding is indicated above each lane.
Cells were treated with 5 times [IC50] of compound 2 and collected at various time points. The percentage of rounded cells was counted before cells were trypsinised and counted for cell viability using trypan blue.
Cells were lysed and equal amounts were analysed by SDS-polyacrylamide gel electrophoresis (SDS-PAGE) and immunoblotting. […] The reduction in E2F-1 levels correlated with reduction in E2F transcriptional activity as determined by an E2F-dependent luciferase reporter assay (refer Example 6).

[5] = 72-h MTT, Table 1, read-out: IC50 Anti-proliferative effect on cell line AGS
[6] = fluorescence polarisation assay, Table 3, read-out: In vitro competitive HDM2 binding assay IC50
[7] = fluorescence polarisation format, Table 1, read-out: IC50 In vitro competitive HDM2 binding assay
[8] = NCI-H1299, 72-h MTT, Table 1, read-out: IC50 Anti-proliferative effect on cell line H 1299

T1 sequence (Q00987 whole entry): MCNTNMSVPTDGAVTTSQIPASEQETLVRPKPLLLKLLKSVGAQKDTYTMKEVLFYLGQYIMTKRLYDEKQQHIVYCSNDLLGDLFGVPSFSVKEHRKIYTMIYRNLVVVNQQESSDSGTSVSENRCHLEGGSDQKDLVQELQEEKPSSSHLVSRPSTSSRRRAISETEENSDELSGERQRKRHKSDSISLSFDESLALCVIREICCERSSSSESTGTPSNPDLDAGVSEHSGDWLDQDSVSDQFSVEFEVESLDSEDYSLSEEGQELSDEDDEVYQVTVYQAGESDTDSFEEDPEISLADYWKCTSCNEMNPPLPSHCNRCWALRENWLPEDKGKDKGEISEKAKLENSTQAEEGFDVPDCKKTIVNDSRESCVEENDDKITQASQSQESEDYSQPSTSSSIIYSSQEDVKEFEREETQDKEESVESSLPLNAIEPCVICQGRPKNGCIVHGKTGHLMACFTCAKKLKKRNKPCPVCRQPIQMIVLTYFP

## CN(c1ccc(F)cc1)S(=O)(=O)c1cc([N+](=O)[O-])c(Cl)s1 [Compound 7]
Messa-Dx5
  IC50: 7.6 µM
AGS; [5]
  IC50: 7 ± 1.3 µM
AGS; 72 h, Gastric adenocarcinoma, Table 2, read-out: Anti-proliferative activity, 72-h MTT IC50
  IC50: 5 µM
HS27
  IC50: 39.2 µM
[1]
  IC50: 10.2 ± 4.4 µM
A549
  IC50: 19.3 µM
HCT116
  IC50: 12.2 µM
SK-N-MC
  IC50: 3 µM
SKUT-1
  IC50: 6.1 µM
WI38
  IC50: 52.3 µM
IMR90
  IC50: 41.8 µM
Nci-H460
  IC50: 9.6 µM
DU145
  IC50: 9.1 µM
[2]
  IC50: 44.6 ± 6.9 µM
p53
  Fold induction of luciferase activity: 32 fold
  Concentration (test compound concentration at which the p53 induction was maximal): 9 µM
U2OS
  IC50: 8.8 µM
Messa
  IC50: 8.1 µM
Lovo
  IC50: 8.5 µM
HeLa
  IC50: 13.7 µM
MCF7
  IC50: 11.2 µM
HDM2; [6]
  IC50: 15.4 ± 7.8 µM
HDM2; [7]
  IC50: 15.4 ± 7.8 µM
Saos-2
  IC50: 13.3 µM
Carcinoma cell lines
  IC50: 9.7 ± 4.7 µM
Sarcoma cell lines
  IC50: 11.3 ± 3.7 µM
H1299; NCI-H1299, 72 h, H1299, Large cell lung carcinoma, Table 2, read-out: Anti-proliferative activity, 72-h MTT IC50
  IC50: 14 µM
H1299; [8]
  IC50: 12.9 ± 0.7 µM
SJSA-1; 72 h, SJSA-1, Osteosracoma, Table 2, read-out: Anti-proliferative activity, 72-h MTT IC50
  IC50: 17 µM
SJSA-1; SJSA-1, 72-h MTT, Table 1, read-out: IC50 Anti-proliferative effect on cell line SJSA-4
  IC50: 9.3 ± 2.7 µM
NaCat
  IC50: 12.9 µM
HT29
  IC50: 4.6 µM

## CC(Cc1c[nH]c2ccccc12)NS(=O)(=O)c1cc([N+](=O)[O-])c(Cl)s1 (centres unmarked) [Compound 49, 5-Chloro-4-nitrothiophene-2-sulfonic acid [2-(1H-indol-3-yl)-1-methylethyl]amide]
AGS; [5]
  IC50: 2.2 ± 2.3 µM
[3]
  IC50: 36.3 ± 2.9 µM
p53
  Fold induction of luciferase activity: 117 fold
  Concentration (test compound concentration at which the p53 induction was maximal): 5.5 µM
[4]
  cell rounding: even more rapid cell rounding
HDM2; [6]
  IC50: 46.3 ± 4 µM
HDM2; [7]
  IC50: 46.3 ± 4 µM
H1299; [8]
  IC50: 1.5 ± 0.4 µM
SJSA-1; SJSA-1, 72-h MTT, Table 1, read-out: IC50 Anti-proliferative effect on cell line SJSA-1
  IC50: 2 ± 0.2 µM

Reference: patent US20050215548A1 (Cyclacel Limited, priority 2002, published 2005)
